From patent US20180147153A1, “PROCESS FOR MAKING A COATED DOSAGE FORM” (Johnson & Johnson Consumer Inc., priority 2016, published 2018)

Legend:
Assay type in all cases: physicochemical
[1] = Dielectric properties (e′, e″, loss tangent, Q value) by Slotted Line Method
From the text: The property of permittivity is the measure of the resistance to forming an electric field. For purposes of comparing materials in air, it is often convenient to describe the permittivity of material in air where the permittivity is more specifically called “relative permittivity” or €r. This is a complex number represented by the following equation: […]
where e′ (the real portion of the complex number) is the dielectric constant (energy storage) and e″ (the imaginary portion of the complex number) is the dielectric loss or dissipation factor (energy dissipated as heat). The ratio of dielectric loss (e″) over the dielectric constant (e′) is called the loss tangent (tan δ) or power factor.
For purposes of this invention, the Q value is calculated for the frequency that the material is to be processed (e.g., 27 MHz). The Q value is affected by physical and chemical properties such as density (porosity/particle size), moisture (conductivity), temperature, and molecular polarizability. The measurements obtained by this method can eliminate the need to measure and evaluate these properties independently.
This process is referred to as the “Slotted Line Method.” Unless otherwise stated, the Slotted line method was used for the calculation of e′, e″, and Q value herein with the frequency range set to 26-28 MHz (31 points resolution) and values of e′ and e″ were recorded from the 27 MHz data point.

Water activity = conditions: Table 1b
[2] = Loss on drying (moisture); conditions: Table 1b
Protocol: In one embodiment, the lossy coated particle contains water. In this embodiment, the lossy coated particle comprises at least 0.1 percent, by weight, water, such as at least 0.3 percent, by weight, water, such as at least 0.5 percent, by weight, water when measured using loss on drying at 105° C. until the weight of the lossy coated particles has stabilized. In one embodiment, the lossy coated particle retains water when measured by loss on drying prior to sintering, such as moisture content of at least 0.1 percent by weight, such as from about 0.1 to about 3 percent, such as from about 0.5 to about 2 percent, by weight.

[3] = Table 1b, surface stabilizing agents, 27 MHz

## OC[C@@H](O)[C@@H](O[C@H]1O[C@H](CO)[C@@H](O)[C@H](O)[C@H]1O)[C@H](O)[C@@H](O)CO [Maltitol (SweetPearl DC300), Maltitol]
[1]; Table 1a, dielectric constant, 27 MHz data point, Slotted Line Method
  e′: 1.6214
[1]; Table 1a, dielectric loss, 27 MHz data point, Slotted Line Method
  e″: 0.0035
[1]; Table 1a, e″/e′, 27 MHz
  Loss Tangent: 0.0022

## OC[C@H]1O[C@H](O[C@H]2O[C@H](CO)[C@@H](O)[C@H](O)[C@H]2O)[C@H](O)[C@@H](O)[C@@H]1O [Trehalose]
Water activity
  Water Activity: 0.1935
[2]
  Loss on Drying @ 105° C.: 0.137
[1]; [3]
  e′: 1.5185
  e″: 0.0007

## OC[C@@H](O)[C@H](O)[C@@H](O)CO [Xylitol (Xylitab ® 100), Xylitol]
Water activity
  Water Activity: 0.453
[2]
  Loss on Drying @ 105° C.: 0.035
[1]; [3]
  e′: 1.751
  e″: 0.010
